Experiment [1] deals with HEK293T cells transfected with an empty vector. The experiment can be described thus: Calcium flux, HEK293T cells transfected with empty vector. The class given is cell-based, human. The settings on record: inotocin 100 nM. As to the method:
(§1) Human embryonic kidney 293T (HEK293T) cells were cultured in DMEM supplemented with 10% FBS at 37°C in a tissue culture incubator with a humidified atmosphere containing 5% CO2. Cells were plated in 10-cm dishes, and, when they reached 60% to 70% confluency, they were transfected with a pcDNA3.3 vector containing approximately 1 ng of inotocin receptor cDNA or an empty vector as a control using Lipofectamine 2000. Cells were transfected directly into poly-D-lysine–coated 384-well plates and incubated for 48 hours at 37°C. Subsequently, cells were incubated with FLIPR Calcium 4 Assay kit dye for 1 hour in the incubator. The fluorescence (excitation, 488 nm; emission, 530 nm) of the wells was recorded using a Flex Station II 384 (Molecular Devices, San Jose, California, USA), and a dose curve of inotocin (0 to 3 μM) was applied to the wells, in sextuplicate (see below for inotocin peptide synthesis). We calculated the EC50 values using Prism (GraphPad Software version 8) nonlinear regression, 4-parameter logistic curve fit. Dose curves were repeated at least 3 times on independently prepared samples and different days. Results were consistent across replicates, and example dose curves are shown in Fig 1C and S4A Fig. Control experiments are shown in S2–S5 Figs.

In experiment [2] the test system is O. biroi inotocin receptor splice variant ObiroiItr_H (lacks TM4-7). As to the kind of experiment: Calcium imaging (fura-2), truncated receptor isoform H. Format: cell-based, Ooceraea biroi. The procedure: (§2) The full-length inotocin receptor cDNA sequence that was cloned and used for calcium assays is ObiroiItr_A (GenBank MW660838; for protein sequence, see S1 Fig). We also tested splice variant ObiroiItr_H (GenBank MW660845; for protein sequence, see S1 Fig), which lacks TM4-7, for calcium activity.
Experiments were conducted following Garrison J.L., et al 2012 [8] with modifications. Human embryonic kidney 293T cells (HEK293T) were cultured in DMEM and supplemented with 10% FBS at 37 °C in a cell incubator containing 5% CO^2. Cells were grown in 35 mm MatTek glass bottom dishes to a level of 60 – 70% confluency. Cells were transfected with a 1:1 ratio of PCDNA3.3 containing ~ 1μg of itcR cDNA (full-length isoform A or truncated isoform H) (See S1 Fig for isoforms) and pcDNA3-alpha 16 (encoding promiscuous G protein 16) using Lipofectamine 2000. Cells were incubated for 24 h at 37 °C and then transferred to 28 °C for another 16-24 h. For control experiments, empty vector was also transfected. On the day of the experiment, the cells were loaded with […] fura-2/AM (Invitrogen) for 25 min at 37 °C. Inotocin peptide diluted in Ringer’s solution was applied to the cells for 15 s with a peristaltic pump, and fluorescence at 510 nm was monitored (excitation at 340/380 nm) using a MetaFluor calcium imaging system with a Nikon Eclipse TE2000U microscope.

Experiment [3] addresses O. biroi inotocin receptor (ObiroiItr_A) (Ooceraea biroi, UniProt A0A8F5LPT9). The experiment can be described thus: Calcium flux, HEK293T cells transfected with full-length inotocin receptor (FLIPR Calcium 4). The class given is cell-based. To be noted: for HillSlope / LogEC50: variable slope; for LogEC50: X data log of Molar_Inotocin.
Excerpt: RNA was isolated in TRIzol using the RNeasy (Qiagen, Germantown, Maryland, USA) purification kit with DNAse I (Qiagen) on-column digestion as in [52] from a sample that contained adult ants, larvae, and pupae and reverse-transcribed into cDNA. Full-length cDNAs for the O. biroi inotocin receptor were PCR amplified with primers 5′-[…]-3′ and 5′-[…]-3′, using the Easy-A high fidelity polymerase (Agilent, Santa Clara, California, USA) to generate PCR products with 5′-Kozak consensus sequences and 3′-A overhangs. The inotocin receptor cDNAs were cloned into the pcDNA3.3 TOPO TA cloning vector (Invitrogen, Waltham, Massachusetts, USA) following manufacturer’s guidelines.
as §2
as §1, with “[…],” for “and a dose curve of inotocin (0 to 3 μM) was applied to the wells,”, “days.” for “days. Results were consistent across replicates, and example dose curves are shown in Fig 1C and S4A Fig. Control experiments are shown in S2–S5 Figs.”

In experiment [4] the test system is Ooceraea biroi ants. As to the kind of experiment: Pharmacological immersion, mixed-age colonies: ants outside the nest (S9 Fig). Format: in vivo. The settings on record: immersion in 1 mM; mixed-age colonies with larvae; 5 hours; n = 6; p = 0.0002, extra sum-of-squares F-test. From the text: Mature O. biroi inotocin peptide (CLITNCPRG) was synthesized and cyclized at The Rockefeller University Proteomics Resource Center, along with a scrambled version of the peptide (NRPCGLTCI) as a negative control with identical amino acid composition.
For the initial experiment (S9 Fig), we set up 6 experimental colonies of line B ants that were color tagged as previously described. Each colony consisted of 16 ants in an airtight Petri dish with a 5-cm diameter; 8 age-matched 4-week-old and 8 age-matched approximately 20-week-old ants. We added ten 3- to 4-day-old larvae to the colonies. We used Logitech (Lausanne, Switzerland) C910 USB cameras to record 5 hours after the treatments, and we used ImageJ to split the videos in batches of 5,000 frames (corresponding to 18.75-minute intervals). We sampled every 10th frame from the 5,000 frames and overlaid the resulting 500 frames into a single image using ImageJ. In each image, we manually counted the number of instances of ants that were outside the nest as a proxy for foraging behavior. Color tagging was used to differentiate inotocin treated from mock treated and untreated ants. The nest was defined as a region of high density of ants in the 500 image projections.
On the day of the experiment, colonies were not fed. To avoid disturbance to the colony as much as possible, half the colony was left untreated, and half was treated. […]

This is an account of results in PMC8244912, “An oxytocin/vasopressin-related neuropeptide modulates social foraging behavior in the clonal raider ant” (PLoS Biology, 2021).

Each structure is given as a SMILES string. “Also recorded” adds a separate entry of the source. Where a SMILES comes first, the peptide text is derived from it. Bridges are numbered along the chain shown (N, C = ends).

O. biroi inotocin receptor (ObiroiItr_A), sequence (A0A8F5LPT9 entry or part of it): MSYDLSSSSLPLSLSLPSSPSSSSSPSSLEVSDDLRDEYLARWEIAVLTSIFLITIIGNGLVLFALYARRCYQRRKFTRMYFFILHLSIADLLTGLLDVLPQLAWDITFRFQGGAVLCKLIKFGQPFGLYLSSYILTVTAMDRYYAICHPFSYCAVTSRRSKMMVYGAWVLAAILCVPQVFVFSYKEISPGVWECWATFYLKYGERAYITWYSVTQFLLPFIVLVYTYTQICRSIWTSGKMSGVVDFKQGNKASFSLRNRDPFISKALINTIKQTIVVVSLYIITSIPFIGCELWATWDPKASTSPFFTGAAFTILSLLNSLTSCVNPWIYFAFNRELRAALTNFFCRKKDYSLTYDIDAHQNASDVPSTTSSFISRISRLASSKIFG

For the compound `CC[C@H](C)[C@@H]1NC(=O)[C@H](CC(C)C)NC(=O)[C@@H](N)CSSC[C@@H](C(=O)N2CCC[C@H]2C(=O)N[C@@H](CCCNC(=N)N)C(=O)NCC(N)=O)NC(=O)[C@H](CC(N)=O)NC(=O)[C@H]([C@@H](C)O)NC1=O` [Inotocin] (H-CLITNCPRG-NH2; disulfide 1-6; N-terminus and C-terminus assumed), the figures for the “calcium response” value in experiment [1] and in experiment [3] (HEK293T cells expressing full-length itcR) were “No Ca^2+ influx is detected” and “responds in a dose-dependent manner to inotocin; also recorded: responded with calcium signals”, respectively. Further, the “calcium signal” value in experiment [2] was “no response to inotocin; also recorded: No calcium signal is detected; also recorded: does not respond to inotocin”. The HillSlope is listed as 0.3027 in experiment [3] (Fig 1C data, Experiment 33015, SE 0.01132, 95% CI 0.2802 to 0.3251) and 0.3034 in experiment [3] (S4A Fig, 032515_plate 2, SE 0.02063, 95% CI 0.2625 to 0.3443). The LogEC50 in experiment [3] (Fig 1C data, Experiment 33015, SE 0.05558, 95% CI -11.24 to -11.02) is on record as -11.13; in experiment [3] (S4A Fig, 032515_plate 2, SE 0.1002, 95% CI -11.47 to -11.07), -11.27. Also, the “half-maximal effective concentration (EC50), in words” value in experiment [3] (cells transfected with the inotocin receptor, calcium signals) is listed as “picomolar”. Besides, in experiment [4], the “time/instances outside the nest vs scrambled control peptide” value is “spent more time outside the nest than controls; also recorded: foraged more when treated with inotocin than when treated with the control peptide”.
